Counter-ions that a name gives are not always drawn. Like-named read-outs stand apart in the source and are kept apart here. Some results are limits rather than exact numbers.

Experimental findings from patent US8791267B2, “Biaryl PDE4 inhibitors for treating inflammatory, cardiovascular and CNS disorders” (Decode Genetics EHF, priority 2007, dated 2014) are described below.

One test has as its target PDE4B (Homo sapiens, UniProt Q07343). Description: In-vitro assay for PDE4 enzymes, real-time enzyme-coupled spectrophotometric assay, PDE4B Activity (Table 10). It counts as biochemical.
A further test deals with PDE4 (Homo sapiens, UniProt Q08499). Description: In-vitro assay for PDE4 enzymes, real-time enzyme-coupled spectrophotometric assay (Table 9). Format: biochemical.
Sequence of PDE4 (Q08499 whole entry): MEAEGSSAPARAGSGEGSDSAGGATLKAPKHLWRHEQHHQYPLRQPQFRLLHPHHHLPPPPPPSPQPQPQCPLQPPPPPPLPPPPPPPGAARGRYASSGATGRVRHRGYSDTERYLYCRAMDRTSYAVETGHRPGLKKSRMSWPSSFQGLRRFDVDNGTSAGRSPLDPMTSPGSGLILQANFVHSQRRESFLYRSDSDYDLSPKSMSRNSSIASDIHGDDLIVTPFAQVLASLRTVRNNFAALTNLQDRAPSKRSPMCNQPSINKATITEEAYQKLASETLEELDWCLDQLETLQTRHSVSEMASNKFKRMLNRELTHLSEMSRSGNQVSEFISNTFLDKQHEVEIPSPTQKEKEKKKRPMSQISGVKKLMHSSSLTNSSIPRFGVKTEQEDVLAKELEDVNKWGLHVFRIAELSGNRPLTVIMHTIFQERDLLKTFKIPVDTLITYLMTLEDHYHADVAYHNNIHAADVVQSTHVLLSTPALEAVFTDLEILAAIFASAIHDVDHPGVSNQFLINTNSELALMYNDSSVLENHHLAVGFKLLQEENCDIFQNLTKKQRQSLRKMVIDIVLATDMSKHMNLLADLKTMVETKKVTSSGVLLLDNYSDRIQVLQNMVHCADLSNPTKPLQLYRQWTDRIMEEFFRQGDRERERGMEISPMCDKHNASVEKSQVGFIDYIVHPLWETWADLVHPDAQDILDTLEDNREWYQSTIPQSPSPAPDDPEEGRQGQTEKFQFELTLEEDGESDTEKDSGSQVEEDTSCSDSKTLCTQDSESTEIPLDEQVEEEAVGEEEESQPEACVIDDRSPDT
[1] abbreviates: human PDE4B (hPDE4B), enzyme-coupled spectrophotometric assay, read-out: PDE4B Activity, hPDE4B.
Where [2] appears, read: human PDE4D, activity class, Table 9, read-out: hPDE4D.

Sequence of PDE4B (Q07343 whole entry): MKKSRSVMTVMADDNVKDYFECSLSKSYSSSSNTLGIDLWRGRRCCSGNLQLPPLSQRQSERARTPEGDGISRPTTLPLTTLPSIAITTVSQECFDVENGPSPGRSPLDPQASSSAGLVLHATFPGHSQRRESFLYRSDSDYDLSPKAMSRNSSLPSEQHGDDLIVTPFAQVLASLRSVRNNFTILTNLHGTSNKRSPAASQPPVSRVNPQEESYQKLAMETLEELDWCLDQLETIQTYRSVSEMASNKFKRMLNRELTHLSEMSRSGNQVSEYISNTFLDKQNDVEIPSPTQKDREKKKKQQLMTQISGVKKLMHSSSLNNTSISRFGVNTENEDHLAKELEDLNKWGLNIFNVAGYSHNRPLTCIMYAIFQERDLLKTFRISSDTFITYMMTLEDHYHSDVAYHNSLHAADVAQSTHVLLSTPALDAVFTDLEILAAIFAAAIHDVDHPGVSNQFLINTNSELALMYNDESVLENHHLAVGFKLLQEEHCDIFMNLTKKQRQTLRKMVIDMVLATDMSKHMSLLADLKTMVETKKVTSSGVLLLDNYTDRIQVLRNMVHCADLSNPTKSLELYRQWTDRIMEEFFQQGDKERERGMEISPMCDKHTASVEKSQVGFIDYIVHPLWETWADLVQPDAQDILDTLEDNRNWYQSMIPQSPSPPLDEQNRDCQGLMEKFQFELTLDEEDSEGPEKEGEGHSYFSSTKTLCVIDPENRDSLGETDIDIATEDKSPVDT

As to `COc1ccc(C(C)(O)c2ccc(NC(C)=O)cc2)c(F)c1-c1cccc(Cl)c1` (racemic) [P-530, N-{4-[1-(3′-Chloro-2-fluoro-6-methoxy-biphenyl-3-yl)-1-hydroxy-ethyl]-phenyl}-acetamide], the IC50 at PDE4B (setting [1]) was 21 to 40 µM; at PDE4 (setting [2]), under 5 µM.

As for `COc1ccc([C@](C)(O)c2ccc(NC(C)=O)cc2)c(F)c1-c1cccc(Cl)c1` (single isomer, unassigned) [P-560], the IC50 at PDE4B (setting [1]) and at PDE4 (setting [2]) was 5 to 20 µM each time. For `CNC(=O)Cc1ccc(OC)c(-c2cccc([N+](=O)[O-])c2)c1` [Cmpd P-027], the IC50 on PDE4B (setting [1]) fell in the range of 5 to 20 µM. As to `COc1ccc(CO)c(O)c1-c1cccc([N+](=O)[O-])c1` [Cmpd P-149], the IC50 at PDE4B (setting [1]) fell in the range of 5 to 20 µM. Turning to `COc1ccc(Cc2ccc(F)cc2)cc1-c1cccc([N+](=O)[O-])c1` [P-001, 5-(4-Fluoro-benzyl)-2-methoxy-3′-nitro-biphenyl], the IC50 at PDE4B (setting [1]) and on PDE4 (setting [2]) was under 5 µM each time. As to `COC(=O)c1cccc(-c2cc(Cc3ccc(F)cc3)ccc2OC)c1` [P-002], the IC50 on PDE4B (setting [1]) and at PDE4 (setting [2]) was under 5 µM in each case. On to `COc1ccc(Cc2ccc(F)cc2)cc1-c1ccc2nonc2c1` [P-004, 5-[5-(4-Fluoro-benzyl)-2-methoxy-phenyl]-benzo[1,2,5]oxadiazole], for which the IC50 on PDE4B (setting [1]) is 5 to 20 µM; at PDE4 (setting [2]) it was under 5 µM. On the same counts, the results for `COc1ccc(Cn2ccnc2)cc1-c1ccc2nonc2c1` [P-006, 5-(5-Imidazol-1-ylmethyl-2-methoxy-phenyl)-benzo[1,2,5]oxadiazole] are under 5 µM and under 5 µM. Regarding `COc1ccc(Cn2nnc3ccccc32)cc1-c1cccc([N+](=O)[O-])c1` [P-007, 1-(6-Methoxy-3′-nitro-biphenyl-3-ylmethyl)-1H-benzotriazole], the IC50 was 5 to 20 µM on PDE4B (setting [1]) and under 5 µM at PDE4 (setting [2]). On the same counts, the results for `COc1ccc(Cc2ccncc2)cc1-c1cccc([N+](=O)[O-])c1` [P-008] are under 5 µM and under 5 µM. `COc1ccc(Cc2ccc(=O)[nH]n2)cc1-c1cccc([N+](=O)[O-])c1` [P-009, 6-(6-Methoxy-3′-nitro-biphenyl-3-ylmethyl)-2H-pyridazin-3-one]: the IC50 at PDE4B (setting [1]) and at PDE4 (setting [2]) was under 5 µM throughout. On to `COc1ccc(Cn2ccc3ccccc32)cc1-c1cccc([N+](=O)[O-])c1` [P-010, 1-(6-Methoxy-3′-nitro-biphenyl-3-ylmethyl)-1H-indole], for which the IC50 on PDE4B (setting [1]) and on PDE4 (setting [2]) was under 5 µM each time. On to `COc1ccc(Cc2ccncc2)cc1-c1ccc2nonc2c1` [P-011], for which the IC50 at PDE4B (setting [1]) and at PDE4 (setting [2]) was under 5 µM throughout.

In the case of `COc1ccc(Cc2ccc(=O)[nH]n2)cc1-c1ccc2nonc2c1` [P-012, 6-(3-Benzo[1,2,5]oxadiazol-5-yl-4-methoxy-benzyl)-2H-pyridazin-3-one], the IC50 on PDE4B (setting [1]) and on PDE4 (setting [2]) was 5 to 20 µM each time.

As to `COc1ccc(Cn2cnc3ccccc32)cc1-c1ccc2nonc2c1` [P-014, 5-(5-Benzoimidazol-1-ylmethyl-2-methoxy-phenyl)-benzo[1,2,5]oxadiazole], the IC50 on PDE4B (setting [1]) and on PDE4 (setting [2]) was 5 to 20 µM throughout. On to `COc1ccc(Oc2ccc(=O)[nH]n2)cc1-c1cccc([N+](=O)[O-])c1` [P-015, 6-(6-Methoxy-3′-nitro-biphenyl-3-yloxy)-2H-pyridazin-3-one], for which the IC50 is 21 to 40 µM at PDE4B (setting [1]) and under 5 µM on PDE4 (setting [2]). Turning to `COc1ccc(Cc2ccncc2)c(O)c1-c1cccc([N+](=O)[O-])c1` [P-017, 6-methoxy-3′-nitro-3-pyridin-4-ylmethyl-biphenyl-2-ol], the IC50 at PDE4B (setting [1]) and at PDE4 (setting [2]) was under 5 µM each time. Consider `COc1ccc(Cc2ccncc2)nc1-c1cccc([N+](=O)[O-])c1` [P-019, 3-methoxy-2-(3-nitro-phenyl)-6-pyridin-4-ylmethyl-pyridine], for which the IC50 at PDE4B (setting [1]) is under 5 µM. On to `NC(=O)Oc1ccc(Cc2ccc(=O)[nH]n2)cc1-c1cccc([N+](=O)[O-])c1` [P-020, Carbamic acid 3′-nitro-5-(6-oxo-1,6-dihydro-pyridazin-3-ylmethyl)-biphenyl-2-yl ester], for which the IC50 against PDE4B was in the range of 21 to 40 µM; against PDE4, 5 to 20 µM. For the molecule `COc1ccc(Cc2ccc3c(c2)OCO3)nc1-c1cccc([N+](=O)[O-])c1` [P-021, 6-benzo[1,3]dioxol-5-ylmethyl-3-methoxy-2-(3-nitro-phenyl)-pyridine], the IC50 on PDE4B (setting [1]) is 5 to 20 µM; on PDE4 (setting [2]) it was under 5 µM. On the same counts, the results for `COC(=O)c1cccc(-c2cc(Cn3cncn3)ccc2OC)c1` [P-022, 2′-Methoxy-5′-[1,2,4]triazol-1-ylmethyl-biphenyl-3-carboxylic acid methyl ester] are 5 to 20 µM and under 5 µM. For `COc1ccc(Cc2ccc(F)cc2)nc1-c1cccc([N+](=O)[O-])c1` [P-023, 6-(4-fluoro-benzyl)-3-methoxy-2-(3-nitro-phenyl)-pyridine] the same measures were 5 to 20 µM and under 5 µM.

As to `COc1ccc(CN2CCCC2=O)nc1-c1cccc([N+](=O)[O-])c1` [P-031, 1-[5-methoxy-6-(3-nitro-phenyl)-pyridin-2-ylmethyl]-pyrrolidin-2-one], the IC50 at PDE4B (setting [1]) lay in the range of 21 to 40 µM. Same read-out and setting: in the case of `COc1ccc(CN2C[C@@H](OC(N)=O)CC2=O)cc1-c1cccc([N+](=O)[O-])c1` [P-253, Carbamic acid (S)-1-(6-methoxy-3′-nitro-biphenyl-3-ylmethyl)-5-oxo-pyrrolidin-3-yl ester] it was 21 to 40 µM.

On to `COc1ccc(Cc2cc(N)cc(O)c2)c(F)c1-c1cccc(Cl)c1` [P-324, 3-Amino-5-(3′-chloro-2-fluoro-6-methoxy-biphenyl-3-ylmethyl)-phenol], for which the IC50 on PDE4B (setting [1]) fell in the range of 21 to 40 µM. As to `FC(F)Oc1ccc(Cc2ccc(N3CCC3)nc2)cc1-c1cccc(Cl)c1` [P-614, 2-Azetidin-1-yl-5-(3′-chloro-6-difluoromethoxy-biphenyl-3-ylmethyl)-pyridine], at PDE4 (setting [2]), the IC50 was under 5 µM. Turning to `COc1ccc(Cc2ccc(N3CC[C@H]3C(N)=O)nc2)c(F)c1-c1cccc(Cl)c1` [P-615, (S)-1-[5-(3′-chloro-2-fluoro-6methoxy-biphenyl-3-ylmethyl)-pyridin-2-yl]-azetidine-2-carboxylic acid amide], at PDE4 (setting [2]), the IC50 is under 5 µM. Take `NC(=O)Nc1ccc(Cc2ccc(OC(F)F)c(-c3cccc(Cl)c3)c2)cn1` [P-616, [5-(3′-Chloro-6-difluoromethoxy-biphenyl-3-ylmethyl)-pyridin-2-yl]-urea]: at PDE4 (setting [2]), the IC50 was under 5 µM. Still for that read-out and setting: in the case of `COc1ccc(Cc2ccc(N3CC[C@@H]3C(N)=O)nc2)c(F)c1-c1cccc(Cl)c1` [P-617, (R)-1-[5-(3′-chloro-2-fluoro-6methoxy-biphenyl-3-ylmethyl)-pyridin-2-yl]-azetidine-2-carboxylic acid amide] it was under 5 µM; in that of `CN(C)CC(=O)Nc1ccc(Cc2ccc(OC(F)F)c(-c3cccc(Cl)c3)c2)cn1` [P-618, N-[5-(3′-Chloro-6-difluoromethoxy-biphenyl-3-ylmethyl)-pyridin-2-yl]-2-dimethylamino-acetamide hydrochloride], under 5 µM.

As to `COc1ccc(Cc2ccc(N(C)CC(N)=O)nc2)c(F)c1-c1cccc(Cl)c1` [P-622, 2-{[5-(3′-Chloro-2-fluoro-6-methoxy-biphenyl-3-ylmethyl)-pyridin-2-yl]-methyl-amino}-acetamide], on PDE4 (setting [2]), the IC50 was under 5 µM.
